Assay [1] relates to microorganisms. The assay is described as follows: Morphology, biofilm and growth disrupting peptides (Table 5). Further details: key: A: Peptide aggregates; B: Less hyphal formation; Clumps; Diffuse clumps and small polyps; F: Diffuse growth; H: Thin; I: Growth inhibition; Microcolony formation; Rippled; Small polyps; Thick; W: Halo formation on top, microlonies on bottom. In kind it is cell-based. From the text:
In certain embodiments peptides that induce alterations in phenotype or other biological activities can also be used as antimicrobial effector moieties.

The test system of assay [2] is microorganisms. Briefly: Targeting peptide binding to target microorganisms (Tables 3, 10, 12). The settings on record: microorganism(s) the targeting peptide binds, preferably 1x PBS.
The subject of assay [3] is microorganisms. Briefly: Peptide activities: targeting/binding, antimicrobial, growth or phenotype altering (Tables 7, 8). The assay is classed as cell-based. The conditions noted are these: peptides having multiple activities.
Where [4] appears, read: binding in aqueous buffers that varied with peptide solubility.
The mark [5] stands for this setting: binding in aqueous buffers varied with peptide solubility.

“Also recorded” adds a separate entry of the source.

Turning to ALDCSEQSVILWYETILDKIVGVIK [PF-028], the “Organism, effect: C. jeikeium” value in the assay on microorganisms [1] (C. jeikeium) is given as “C. jeikeium (M)”. Moreover, the “Organism, effect: MRSA” value in the assay with microorganisms [1] (MRSA) is “MRSA (R)”. For the same molecule, the “Organism, effect: S. epidermidis” value with microorganisms [1] (S. epidermidis) is “S. epidermidis (M)”. In addition, the “Target(s)” value in the assay on microorganisms [2] (setting [4]) is “S. epidermidis and M. luteus and MRSA”. The Activities result with microorganisms [3] is recorded as “G B”.
For the molecule DEIKVSDEEIEKFIKENNL [PF-597], the “Organism, effect” value in the assay on microorganisms [1] (E. faecalis) is “E. faecalis (A)”. Moreover, the “Target(s)” value with microorganisms [2] (setting [5]) was “P. mirabilis”. The Activities result in the assay on microorganisms [3] is “G B”.
Regarding “GNVHPESDFHNLIQFIKTFLYFTIFFKYFL [PF-C290]”, the “Organism, effect” value in the assay on microorganisms [1] (S. mutans) is recorded as “S. mutans (F)”. For the same molecule, in the assay with microorganisms [2] (setting [5]), the “Target(s)” value was “A. naeslundii; also recorded: F. nucleatum; also recorded: P. gingivalis; also recorded: S. mutans; also recorded: T. denticola”. In addition, the Activities entry with microorganisms [3] was “G B”.
HCVIGNVVDIANLLKRRAVYRDIADVIKMR [PF-071]: the “Organism, effect: B. subtilis” value in the assay on microorganisms [1] (B. subtilis) is on record as “B. subtilis (D)”. Also, the “Organism, effect: C. albicans” value in the assay on microorganisms [1] (C. albicans) is recorded as “C. albicans (B)”. The “Organism, effect: C. jejuni” value with microorganisms [1] (C. jejuni) is reported as “C. jejuni (A)”. Also, the “Organism, effect: M. luteus” value with microorganisms [1] (M. luteus) is listed as “M. luteus (R)”. Moreover, the “Organism, effect: MRSA” value in the assay with microorganisms [1] (MRSA) was “MRSA (C)”. Moreover, in the assay with microorganisms [1] (S. epidermidis), the “Organism, effect: S. epidermidis” value is reported as “S. epidermidis (R)”. For the same molecule, the “Organism, effect: S. pneumoniae” value in the assay with microorganisms [1] (S. pneumoniae) is “S. pneumoniae (A)”. For the same molecule, the “Target(s)” value in the assay with microorganisms [2] (setting [4]) is “S. epidermidis and E. coli and P. aeruginosa and C. albicans and MRSA and S. pneumoniae and E. faecalis”. For the same molecule, the Activities result in the assay on microorganisms [3] was “G B”.
HKNKLNIPHIKS [PF-477]: the “Organism, effect” value in the assay on microorganisms [1] (S. pneumoniae) is “S. pneumoniae (H)”. In the assay with microorganisms [2] (setting [5]), the “Target(s)” value was “S. epidermidis; also recorded: M. luteus; also recorded: C. albicans; also recorded: S. pneumoniae; also recorded: C. jeikeium; also recorded: C. jejuni”. The Activities result with microorganisms [3] is given as “G B”.
With KKFKIFVIINWFYHKYIILNFEENF [PF-C085], in the assay on microorganisms [1] (S. mutans), the “Organism, effect” value is “S. mutans (F)”. The “Target(s)” value with microorganisms [2] (setting [5]) is reported as “A. naeslundii; also recorded: F. nucleatum; also recorded: P. gingivalis; also recorded: S. mutans; also recorded: T. denticola”. Also, in the assay on microorganisms [3], the Activities result is listed as “G B”.
As to LHVIRPRPELSELKFPITKILKVNKQGLKK [PF-752], the “Organism, effect” value with microorganisms [1] (S. pneumoniae) was “S. pneumoniae (C)”. Moreover, the “Target(s)” value in the assay with microorganisms [2] (setting [5]) is “S. epidermidis and E. coli and MRSA and S. pneumoniae and E. faecalis”. Moreover, the Activities result with microorganisms [3] was “G B”.
For LIQKGLNQTFIVVIRLNNFIKKS [PF-013], the “Organism, effect: C. jeikeium” value with microorganisms [1] (C. jeikeium) was “C. jeikeium (D)”. In addition, in the assay with microorganisms [1] (M. luteus), the “Organism, effect: M. luteus” value is listed as “M. luteus (D)”. For the same molecule, the “Organism, effect: MRSA” value in the assay on microorganisms [1] (MRSA) was “MRSA (R)”. Also, the “Organism, effect: S. epidermidis” value in the assay with microorganisms [1] (S. epidermidis) is “S. epidermidis (C)”. For the same molecule, in the assay with microorganisms [2] (setting [4]), the “Target(s)” value is “M. luteus and P. mirabilis and E. coli and P. aeruginosa and MRSA and S. pneumoniae and C. jeikeium and C. jejuni”. Also, the Activities entry in the assay on microorganisms [3] is given as “G B”.
Regarding “LMFFSENMDKRDTLSGKFRYFAGSKVIKLMNWLSENGK [PF-226]”, the “Organism, effect: M. luteus” value with microorganisms [1] (M. luteus) is on record as “M. luteus (T)”. In the assay with microorganisms [1] (S. epidermidis), the “Organism, effect: S. epidermidis” value is reported as “S. epidermidis (C)”. In addition, the “Target(s)” value in the assay on microorganisms [2] (setting [5]) is given as “A. baumannii”. Moreover, in the assay with microorganisms [3], the Activities result is recorded as “G B”.
In the case of “PF-596: peptide having multiple activities (chain 1 SKMWDKILTILILILELIRELIKL; chain 2 SKMWDKILTILILILELIRELIKL; Peptide with targeting and/or antimicrobial activity)”, the “Organism, effect” value was “C. jejuni (D)” with microorganisms [1] (C. jejuni); “E. coli (C)” in the assay on microorganisms [1] (E. coli); “E. faecalis (D)” with microorganisms [1] (E. faecalis); “MRSA (D)” in the assay with microorganisms [1] (MRSA); “S. epidermidis (D)” with microorganisms [1] (S. epidermidis); “S. pneumoniae (D)” in the assay with microorganisms [1] (S. pneumoniae). Further, the Activities entry in the assay on microorganisms [3] was “G B”.
As to “PF-605: peptide having multiple activities (chain 1 HYRWNTQWWKY; chain 2 HYRWNTQWWKY; Peptide with targeting and/or antimicrobial activity)”, the “Organism, effect” value is listed as “C. albicans (B)” in the assay with microorganisms [1] (C. albicans); “C. jejuni (R)” in the assay on microorganisms [1] (C. jejuni); “E. coli (C)” in the assay with microorganisms [1] (E. coli); “E. faecalis (R)” in the assay on microorganisms [1] (E. faecalis); “MRSA (C)” in the assay with microorganisms [1] (MRSA); “P. aeruginosa (A)” in the assay on microorganisms [1] (P. aeruginosa). Also, the “Organism, effect” value in the assay on microorganisms [1] (S. epidermidis) is recorded as “S. epidermidis (R)”; in the assay with microorganisms [1] (S. pneumoniae), “S. pneumoniae (D)”. In addition, the Activities result in the assay on microorganisms [3] is recorded as “G B”.
As to “PF-610: peptide having multiple activities (chain 1 VFLKLKTSKIDLASIIFYP; chain 2 VFLKLKTSKIDLASIIFYP; Peptide with targeting and/or antimicrobial activity)”, the “Organism, effect” value is “C. jejuni (D)” in the assay with microorganisms [1] (C. jejuni); “E. coli (C)” with microorganisms [1] (E. coli); “E. faecalis (D)” in the assay on microorganisms [1] (E. faecalis); “MRSA (D)” in the assay on microorganisms [1] (MRSA); “S. epidermidis (C)” in the assay with microorganisms [1] (S. epidermidis); “S. pneumoniae (D)” in the assay with microorganisms [1] (S. pneumoniae). In the assay with microorganisms [3], the Activities entry is “G B”.
In the case of “PF-615: peptide having multiple activities (chain 1 FLNRFIFYIFTVKTKSALIKNLFLD; chain 2 FLNRFIFYIFTVKTKSALIKNLFLD; Peptide with targeting and/or antimicrobial activity)”, the “Organism, effect” value is listed as “C. jejuni (D)” in the assay with microorganisms [1] (C. jejuni); “E. coli (C)” in the assay with microorganisms [1] (E. coli); “E. faecalis (D)” in the assay with microorganisms [1] (E. faecalis); “MRSA (D)” with microorganisms [1] (MRSA); “S. epidermidis (D)” in the assay on microorganisms [1] (S. epidermidis); “S. pneumoniae (D)” in the assay on microorganisms [1] (S. pneumoniae). For the same molecule, the Activities result with microorganisms [3] is given as “G B”.
As to “PF-619: peptide having multiple activities (chain 1 WSRVPGHSDTGWKVWHRW; chain 2 WSRVPGHSDTGWKVWHRW; Peptide with targeting and/or antimicrobial activity)”, the “Organism, effect” value with microorganisms [1] (E. coli) is “E. coli (C)”; in the assay with microorganisms [1] (MRSA) it was “MRSA (M)”; in the assay with microorganisms [1] (S. epidermidis), “S. epidermidis (M)”; in the assay with microorganisms [1] (S. pneumoniae), “S. pneumoniae (C)”. Further, the Activities result with microorganisms [3] was “G B”.
On to “PF-630: peptide having multiple activities (chain 1 IPATPIIHS; chain 2 IPATPIIHS; Peptide with targeting and/or antimicrobial activity)”, for which the “Organism, effect” value in the assay on microorganisms [1] (MRSA) is “MRSA (M)”. Besides, in the assay with microorganisms [3], the Activities entry was “G B”.
In the case of “PF-634: peptide having multiple activities (chain 1 MPKARPVNHNKKKSKITIKSNFTLFYMFNP; chain 2 MPKARPVNHNKKKSKITIKSNFTLFYMFNP; Peptide with targeting and/or antimicrobial activity)”, the “Organism, effect” value with microorganisms [1] (E. coli) was “E. coli (C)”; with microorganisms [1] (M. luteus) it was “M. luteus (C)”; in the assay with microorganisms [1] (MRSA) it was “MRSA (D)”; in the assay on microorganisms [1] (P. mirabilis) it was “P. mirabilis (C)”; in the assay on microorganisms [1] (S. epidermidis), “S. epidermidis (D)”; in the assay on microorganisms [1] (S. mutans) it was “S. mutans (D)”. Besides, in the assay on microorganisms [1] (S. pneumoniae), the “Organism, effect” value is “S. pneumoniae (D)”. The Activities result in the assay with microorganisms [3] is on record as “G B”.
For the molecule “PF-770: peptide having multiple activities (GVGIGFIMMGVVGYAVKLVHIPIRYLIV; Peptide with targeting and/or antimicrobial activity)”, the “Organism, effect” value was “E. coli (C)” in the assay with microorganisms [1] (E. coli); “M. luteus (C)” in the assay with microorganisms [1] (M. luteus); “MRSA (D)” in the assay with microorganisms [1] (MRSA); “P. mirabilis (C)” in the assay on microorganisms [1] (P. mirabilis); “S. epidermidis (D)” in the assay with microorganisms [1] (S. epidermidis); “S. mutans (D)” with microorganisms [1] (S. mutans). In addition, in the assay with microorganisms [1] (S. pneumoniae), the “Organism, effect” value is reported as “S. pneumoniae (C)”. Besides, the Activities entry with microorganisms [3] is “G B”.

B1: PF-S003: peptide having multiple activities (peptide)
chain 1: ALALLKQDLLNFEGRGRIITSTYLQFNEGCVP
chain 2: B1 chain 1
modifications: Peptide with targeting and/or antimicrobial activity
For the molecule B1, the “Organism, effect” value in the assay with microorganisms [1] (B. subtilis) was “B. subtilis (A)”; in the assay on microorganisms [1] (C. albicans), “C. albicans (A)”; in the assay with microorganisms [1] (C. jeikeium), “C. jeikeium (D)”; with microorganisms [1] (C. jejuni), “C. jejuni (D)”; in the assay with microorganisms [1] (M. luteus), “M. luteus (R)”; in the assay with microorganisms [1] (MRSA), “MRSA (M)”. Besides, the “Organism, effect” value is reported as “P. aeruginosa (A)” in the assay with microorganisms [1] (P. aeruginosa), “S. epidermidis (R)” with microorganisms [1] (S. epidermidis) and “S. pneumoniae (D)” with microorganisms [1] (S. pneumoniae). Further, the Activities entry in the assay with microorganisms [3] was “G B”.

B2: PF-612: peptide having multiple activities (peptide)
chain 1: GTTLKYGLERQLKIDIHPEITIINLNGGADEFAKL
chain 2: B2 chain 1
modifications: Peptide with targeting and/or antimicrobial activity
B2: the “Organism, effect” value was “E. coli (C)” in the assay with microorganisms [1] (E. coli); “M. luteus (A)” in the assay on microorganisms [1] (M. luteus); “MRSA (C)” in the assay with microorganisms [1] (MRSA); “P. mirabilis (C)” in the assay on microorganisms [1] (P. mirabilis); “S. epidermidis (C)” with microorganisms [1] (S. epidermidis); “S. mutans (F)” in the assay on microorganisms [1] (S. mutans). In addition, the “Organism, effect” value with microorganisms [1] (S. pneumoniae) is recorded as “S. pneumoniae (C)”. For the same molecule, the Activities entry in the assay on microorganisms [3] is reported as “G B”.

The values are drawn from US20110039763A1, “TARGETED ANTIMICROBIAL MOIETIES” (C3 JIAN, INC., priority 2009, published 2011).
